Reference: patent US20080319002A1, “Xanthine Derivatives a Useful as Muscarinic Receptor Antagonists” (RANBAXY LABORATORIES LIMITED, priority 2004, published 2008)

melting point [°C]	SMILES
183 to 190	O=C(N[C@H]1[C@@H]2CNC[C@@H]21)C1c2ccccc2Oc2ccccc21 [Compound No. 6]
165	O=C(NC[C@@H]1[C@H]2CN(CCc3ccc4c(c3)CCO4)C[C@@H]12)C1c2ccccc2Oc2ccccc21 [Compound No. 11, N-[(1α,5α,6α)-3-(2-(2,3-dihydro-benzofuran-5-yl)-ethyl)-3-aza-bicyclo[3.1.0]hex-6-ylmethyl]-9H-Xanthene-9-carboxylic acid amide]
